Type in all cases: ADME
Data set [1] in a line: Drug uptake in C57BL/6J mouse neuronal cytosol at 100 uM after 1 min by confocal microscopy co-treated with 20 uM 2-TRLG.
A short description of data set [2]: Drug uptake in C57BL/6J mouse neuronal cytosol at 20 uM after 1 min by confocal microscopy co-treated with 100 uM 2-NBDG.
The nature of data set [3]: Drug uptake in C57BL/6J mouse neuronal cytosol at 20 uM after 1 min by confocal microscopy co-treated with 100 uM 2-NBDLG.

Regarding `O=[N+]([O-])c1ccc(N[C@H]2C(O)O[C@H](CO)[C@@H](O)[C@@H]2O)c2nonc12` (stereo partly specified), the Drug uptake result in data set [1] was “Active”.

As to `O=S(=O)([O-])c1cc(S(=O)(=O)N[C@@H]2C(O)O[C@@H](CO)[C@H](O)[C@H]2O)ccc1C1=c2cc3c4c(c2Oc2c1cc1c5c2CCCN5CCC1)CCC[N+]=4CCC3` (stereo partly specified), the Drug uptake entry is “Not Active” in data set [2] and “Active” in data set [3].

On to `O=S(=O)([O-])c1ccc(C2=c3cc4c5c(c3Oc3c2cc2c6c3CCCN6CCC2)CCC[N+]=5CCC4)c(S(=O)(=O)N[C@@H]2C(O)O[C@@H](CO)[C@H](O)[C@H]2O)c1` (stereo partly specified), for which the values for the Drug uptake entry in data set [2] and in data set [3] were “Not Active” and “Active”, respectively.

Consider `O=[N+]([O-])c1ccc(N[C@@H]2C(O)O[C@@H](CO)[C@H](O)[C@H]2O)c2nonc12` (stereo partly specified), for which, in data set [1], the Drug uptake entry was “Not Active”.
